In patent publication US20240197871A1, “COMBINATION OF A CAR T CELL THERAPY AND AN IMMUNOMODULATORY COMPOUND FOR TREATMENT OF LYMPHOMA” (Juno Therapeutics, Inc., priority 2021, published 2024):

Test system: RL CD19+ tumor cells
Assay: Cytolytic function: co-culture of anti-CD19 CAR T cells with RL CD19+ tumor cells
Format: cell-based
Settings: E:T 1:1
Experimental: To do so, CAR T cells were plated on ploy-D-lysine plates. CD19+ tumor cells transduced with IncuCyte® NucLight Red (Essen BioScience Inc.) were then added to the CAR T cells in addition to Compound C or vehicle control. Tumor cell number was measured over multiple days.
Treatment with CAR T cells in combination with either immunomodulatory compound led to lower tumor cell numbers than did CAR T cells alone or the compounds alone.

## O=C1CC[C@H](N2Cc3c(OCc4ccc(CN5CCOCC5)cc4)cccc3C2=O)C(=O)N1 [Compound 2, (S)-3-[4-(4-morpholin-4-ylmethyl-benzyloxy)-1-oxo-1,3-dihydro-isoindol-2-yl]-piperidine-2,6-dione, reference compound]
Compound at 0.01 μM with anti-CD19 CAR T cells
  RL tumor cell number vs CAR T cells alone or compound alone: lower
Compound at 0.1 μM with anti-CD19 CAR T cells
  RL tumor cell number vs CAR T cells alone or compound alone: lower
